# Source: ChEMBL document CHEMBL1157177, “Trivalent, Gal/GalNAc-containing ligands designed for the asialoglycoprotein receptor” (Bioorg Med Chem, 2008)
# Assay: Displacement of [125I]asialoorosomucoid from ASGP receptor
row,Ki,Compound
1,93 nM,O=C(CCCCO[C@@H]1O[C@H](CO)[C@H](O)[C@H](O)[C@H]1O)NCCCNC(=O)CCOCC(COCCC(=O)NCCCNC(=O)CCCCO[C@@H]1O[C@H](CO)[C@H](O)[C@H](O)[C@H]1O)(COCCC(=O)NCCCNC(=O)CCCCO[C@@H]1O[C@H](CO)[C@H](O)[C@H](O)[C@H]1O)NC(=O)CNC(=O)OCc1ccccc1
2,200 nM,COC(=O)CCCCC(=O)NCC(=O)NC(COCOCCOCCOCCOCCO[C@@H]1O[C@H](CO)[C@H](O)[C@H](O)[C@H]1O)(COCOCCOCCOCCOCCO[C@@H]1O[C@H](CO)[C@H](O)[C@H](O)[C@H]1O)COCOCCOCCOCCOCCO[C@@H]1O[C@H](CO)[C@H](O)[C@H](O)[C@H]1O
3,2 nM,CC(=O)N[C@H]1[C@H](OCCOCCOCCNC(=O)CCOCC(COCCC(=O)NCCOCCOCCO[C@@H]2O[C@H](CO)[C@H](O)[C@H](O)[C@H]2NC(C)=O)(COCCC(=O)NCCOCCOCCO[C@@H]2O[C@H](CO)[C@H](O)[C@H](O)[C@H]2NC(C)=O)NC(=O)CN)O[C@H](CO)[C@H](O)[C@@H]1O
